Experimental data: PubChem BioAssay (NCI)
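A five-concentration, 48-hour dose response in 96-well plates underlies each endpoint, interpolated linearly between surrounding concentrations. TGI: total growth inhibition.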

Key:
Experiment in all cases: NCI tumour cell line growth inhibition, 48 h
[1] = test system: NCI-H522 lung
[2] = test system: U251 CNS
[3] = test system: CCRF-CEM leukemia
[4] = test system: OVCAR-4 ovarian
[5] = test system: HCT-116 colon
[6] = test system: IGROV1 ovarian
[7] = test system: SF-295 CNS
[8] = test system: NCI/ADR-RES ovarian
[9] = test system: MDA-MB-435
[10] = test system: MCF7 breast

Structure (SMILES) | TGI [1] [µM] | TGI [2] [µM] | TGI [3] [µM] | TGI [4] [µM] | TGI [5] [µM] | TGI [6] [µM] | TGI [7] [µM] | TGI [8] [µM] | TGI [9] [µM] | TGI [10] [µM]
[O-]c1c2c(nn1-c1ccc(F)cc1)c1ccccc1c[n+]2Cc1ccccc1 | 21.3 | 33.4 | 33.7 | 66.2 | 32.9 | 30.6 | 40.4 | – | – | –
CN(C)CCC(=O)[C@@]1(O)CC[C@H]2[C@@H]3CC=C4C[C@@H](O)CC[C@]4(C)[C@H]3CC[C@@]21C | 25.3 | 31 | > 55.7 | > 78.2 | 32.6 | 34.3 | > 73.9 | 72.1 | 45.5 | 16.8
O=C(c1ccccc1)c1ccc(N2C(=O)/C(=C/c3cccc(Oc4ccccc4)c3)N=C2c2ccccc2)c(N2C(=O)/C(=C/c3cccc(Oc4ccccc4)c3)N=C2c2ccccc2)c1 | 51 | > 100 | > 100 | > 100 | > 100 | > 100 | > 100 | 69.1 | 31.5 | 94.3
NC1=NC(c2ccc(Cl)cc2)=CC(c2cccc(Cl)c2)S1 (configuration not stated) | 55.8 | 55.5 | > 100 | 60.5 | > 100 | > 100 | > 100 | > 100 | 38.9 | > 100
CCCCC(CC)C(=O)Oc1ccc(C(=O)c2ccccc2)c(O)c1 (configuration not stated) | 98.2 | > 100 | > 100 | > 100 | > 100 | > 100 | > 100 | > 100 | > 100 | > 100
CCOC(=O)N1c2ccccc2N(C(=O)OCC)C1CC(=O)/C=C/c1ccccc1 | 6.42 | 12.8 | 4.61 | 6.33 | 11.6 | 17.8 | 21.7 | 9.77 | 8.11 | 13.6
CC(C)=CCC/C(C)=C/Cc1c2c(c3oc(-c4ccc(O)c(O)c4)c(O)c(=O)c3c1O)C=CC(C)(C)O2 | 2.9 | 10.7 | 8.82 | 9.5 | 8.56 | 8.5 | 13.4 | 11.7 | 12.6 | 11.4
O=C1c2cc3c(cc2[C@@H]2C(O)[C@H]4O[C@H]4C4CCN1C42)OCO3 (some centres not stated) | > 37.5 | – | > 37.5 | > 37.5 | > 37.5 | > 37.5 | > 37.5 | – | – | –
Cc1csc2nc(-c3cc([N+](=O)[O-])c(Cl)cc3Cl)c(/C=N/N=C(N)N)n12 | 29.4 | 30.5 | > 100 | 29.8 | 39.5 | 30 | 38.8 | 32 | 34.7 | 37.5
CC(C)N(CC(=O)O)CC(=O)O | > 100 | > 100 | > 100 | > 100 | > 100 | > 100 | > 100 | > 100 | > 100 | > 100
CO[P@@]1(=O)O[C@@H](c2ccccc2)[C@H](O)[C@@]1(O)c1ccccc1 | > 100 | > 100 | > 100 | > 100 | > 100 | > 100 | > 100 | > 100 | > 100 | > 100
Nc1[nH]c(=O)nc2c1cnn2COCCO | – | 52.8 | > 100 | > 100 | > 100 | > 100 | > 100 | – | – | –
O=P1(Oc2ccc(Cl)cc2Cl)Oc2cc3ccccc3cc2O1 | 82.6 | > 100 | > 100 | > 100 | > 100 | > 100 | > 100 | > 100 | – | > 74.4
CCOC(=O)c1sc2nc(SC)nc3c2c1NC(=O)CN3c1ccc(F)cc1 | > 100 | > 100 | 78.4 | > 100 | > 100 | > 100 | 57.9 | – | > 100 | > 100
CC1(C=O)CC(CCc2ccccc2)NC1Cc1ccc(O)cc1 (configuration not stated) | 35 | 26.5 | 82.7 | 29 | 29.6 | 30.8 | 33.8 | 37.6 | 34 | 27.1
COc1cc2cc(C(=O)N3CC(CCl)c4ccc(NO)cc43)[nH]c2c(OC)c1OC (configuration not stated) | 0.354 | – | 1.16 | 0.774 | > 100 | 10.3 | 0.6 | 0.48 | 0.481 | > 32.8
CCOC(=O)C(C(=O)OCC)c1cc(-c2cc3ccccc3o2)oc(=O)c1C#N | – | 30.6 | > 100 | 71.4 | 44.9 | 80 | 48.2 | – | – | –
Nc1ccc(Oc2ccc(C34CC5C6CC7(c8ccc(Oc9ccc(N)cc9)cc8)CC5C(C3)C(C7)C6C4)cc2)cc1 | > 100 | > 100 | > 100 | > 100 | > 100 | > 100 | > 100 | > 100 | > 100 | > 100
